# Marks after values point to notes of the source that are not given here.
# Key:
# [1] = target: T1, lipase from porcine pancreas (Sus scrofa, UniProt P00591); assay: Inhibitory action against lipase: amount of free fatty acid produced from bile acid micelles (artificial in vivo system); format: biochemical
# T1 construct: lipase from porcine pancreas [SIGMA]; purchased SIGMA; host or cells: porcine pancreas (tissue-derived preparation)
# T1 sequence (P00591 1-450): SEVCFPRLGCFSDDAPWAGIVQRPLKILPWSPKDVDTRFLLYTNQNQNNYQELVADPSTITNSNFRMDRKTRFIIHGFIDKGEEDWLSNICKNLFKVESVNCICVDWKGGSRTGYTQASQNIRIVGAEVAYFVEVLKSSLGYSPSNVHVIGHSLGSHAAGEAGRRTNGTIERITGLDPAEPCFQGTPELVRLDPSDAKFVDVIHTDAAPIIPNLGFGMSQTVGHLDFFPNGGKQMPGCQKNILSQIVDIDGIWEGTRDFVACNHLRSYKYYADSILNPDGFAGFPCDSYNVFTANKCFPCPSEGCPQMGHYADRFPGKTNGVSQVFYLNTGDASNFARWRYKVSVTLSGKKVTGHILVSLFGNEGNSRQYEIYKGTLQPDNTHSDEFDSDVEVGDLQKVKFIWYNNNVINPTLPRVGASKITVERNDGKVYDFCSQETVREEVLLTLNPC
# Protocol: In this example, an emulsification liquid containing bile acid micelles was produced as an artificial in vivo system. In the artificial in vivo system, the inhibitory action of the test samples against the lipolytic activity by lipase in vivo was evaluated by measuring the amount of free fatty acid collected from the bile acid micelles after application of lipase in the presence of the test samples.
# 10 g of olive oil (Wako Pure Chemical Industries, Ltd.) was added to each test sample (30 mg in terms of CA amount), which was heated at 70° C. in an oven for 20 minutes to be dissolved.
# 0.92 g of olive oil in which each test sample was dissolved, 40 mg of egg yolk lecithin (Wako Pure Chemical Industries, Ltd.), and 24 mL of the bile acid solution were added to a 50-mL tube, followed by cooling with ice, and thereafter emulsification was performed thereon using an ultrasonic homogenizer. […] Thereafter, 2.5 mL of a 0.1% lipase solution (0.1N TRIS-HCl buffer solution of lipase from porcine pancreas [SIGMA]) was added thereto, which was mixed with stirring using a vortex mixer for 10 seconds, followed by incubation in a water bath at 37° C. for 10 minutes. The tube was moved into an oil bath at 70° C., was subjected to enzyme inactivation for 15 minutes, and thereafter was mixed again with stirring using a vortex mixer to collect 100 μL.
# The amount of free fatty acid in the reaction solution was determined using NEFA-C Test wako. That is, 800 μL of a coloring reagent A was added to 100 μL of the sample, which was stirred using a vortex mixer, and thereafter was heated at 37° C. for 10 minutes. After cooling, 1600 μL of a coloring reagent B was added thereto, followed by stirring, and was heated again at 37° C. for 10 minutes. This was subjected to an ultraviolet/visible spectrophotometer to measure an absorbance at 550 nm. Thus, the amount of free fatty acid produced was obtained. Each reaction solution was measured 3 times or 4 times by the same operation.
# blood GIP = assay: Inhibitory action against blood GIP increase, intragastric administration test of starch paste sample; format: in vivo, C57BL/6J mice; conditions: Table 6, AUC for 120 minutes, relative value with control administration group taken as 100, 175 μM in terms of CA
# Protocol: For experiments, C57BL/6J mice (male, 8 week-old, manufactured by CLEA Japan, Inc.) grouped so that each group has the same body weight (N=16/group) were used and were subjected to the tests.
# Starch (waxy corn, Amioca) was dissolved in distilled water in an amount 4 times the amount of the starch and gelatinized (pregelatinized) by autoclaving (at 121° C. under a pressure of 2 atmospheres for 20 minutes). Each of the test samples (Sample Nos. 2 to 4 and 8) shown in Table 4 was emulsified in triolein containing egg yolk lecithin and albumin to obtain an emulsified oil. […]
# The starch paste sample containing the test sample was intragastrically administered to a mouse fasted for 20 hours, and part of the blood was collected from the orbital venous plexus over time (before the administration, and at 10, 30, 60, and 120 minutes after the administration). […] The collected blood was subjected to centrifugation, and thereafter the blood plasma was prepared and measured using GIP ELISA kit (EMD Millipore Corporation). The blood GIP amount of each sample after the administration was calculated by measuring the maximum value (Cmax) and the area under the concentration curve (AUC) for 120 minutes. […]
# [2] = in vivo; Patent Literatures 9 to 11; cited from earlier work
structure (smiles),measurement,setting,value
"CC(C)=CCC[C@@H](C)[C@H]1CC[C@@]2(C)[C@@H]3CC[C@H]4C(C)(C)[C@@H](O)CC[C@@]45C[C@@]35CC[C@]12C [Purified product of cycloartenol, cycloartenol]",amount of free fatty acid produced compared to the control / lipase inhibitory activity (in words),[1]; Example 1,reduced
same,"Amount of free fatty acid produced, Average","[1]; Example 1, test sample 30 mg in terms of CA in 10 g olive oil, lipase 37° C. 10 minutes, NEFA-C Test wako, absorbance 550 nm, control (olive oil alone) 0.376",0.276
same,amount of free fatty acid produced compared with the control / lipase inhibitory activity (in words),[1]; Example 2,reduced
same,"Amount of free fatty acid produced, Average","[1]; Example 2, same manner as Example 1, control (olive oil alone) 0.296",0.238
same,GIP (AUC),blood GIP,81 *
same,inhibitory activity against GIP increase,[2],exerts inhibitory activities
same,inhibitory activity against postprandial blood glucose increase,[2],exerts inhibitory activities

# From patent US20170014430A1, “Cycloartenol-Containing Composition” (KAO CORPORATION, priority 2014, published 2017)
